Values quoted from earlier work as cited in patent publication US10092609B2, “Process for preparing medicinal mycological preparations” (priority 2015, dated 2018).

Details: in vivo

CC[C@H](C)C(=O)O[C@H]1C[C@@H](C)C=C2C=C[C@H](C)[C@H](CC[C@@H]3C[C@@H](O)CC(=O)O3)[C@H]21 [lovastatin]
reduction of “bad” LDL-cholesterol in circulation: about 20%
